Experimental findings from article PMC13288994, “Identification and characterization of novel chikungunya virus polymerase inhibitors” (Journal of Virology, 2026) are described below.

Series [1] concerns CHIKV-nLuc (181/25 strain). Nature of the series: microbe, parasite or virus in culture. Type of series: cell-based, Chikungunya virus. As to conditions: 384-well format, read 20 h after infection.
Series [2] concerns VEEV-TC83-nLuc. Nature of the series: microbe, parasite or virus in culture. The class given is cell-based.
Series [3] relates to SINV-GLuc. Nature of the series: microbe, parasite or virus in culture. Type of series: cell-based. Particulars: VeroE6 cells, read-out: Antiviral potency (EC50 [µM]) SINV.
Series [4] relates to HPIV3-nLuc. Nature of the series: microbe, parasite or virus in culture. Type of series: cell-based. As to conditions: VeroE6 cells, read-out: Antiviral potency (EC50 [µM]) HPIV3.
Series [5] relates to SARS-CoV-2-nLuc. Nature of the series: microbe, parasite or virus in culture. The class given is cell-based. As to conditions: VeroE6-TMPRSS2 cells, read-out: Antiviral potency (EC50 [µM]) SARS-CoV-2.
The subject of series [6] is VSV-nLuc. The series can be described thus: microbe, parasite or virus in culture. The class given is cell-based.
The nature of series [7]: in vitro. As to conditions: human.
Series [8] in a line: in vitro. Particulars: African green monkey.
A short description of series [9]: in vitro. Particulars: human. This is another data set of the same source.
For series [10], the system named is CHIKV replicon. The series can be described thus: microbe, parasite or virus in culture. As to conditions: Chikungunya virus, U2OS, read-out: Antiviral potency (EC50 [µM]) CHKV replicon.
Series [11] concerns RSV A2-L19F. The series can be described thus: microbe, parasite or virus in culture. The class given is cell-based. As to conditions: Hep-2 cells; read-out: Antiviral potency (EC50 [µM]) RSV.
The subject of series [12] is CHIKV-nLuc. Nature of the series: microbe, parasite or virus in culture. Type of series: cell-based, Chikungunya virus. Particulars: MOI 0.1 FFU/cell, 24 hpi, in-house synthesized compound; read-out: EC50 CHIKV-nLuc, U-2 OS.
Series [13] relates to CHIKV-nLuc. The series can be described thus: microbe, parasite or virus in culture. The class given is cell-based, Chikungunya virus. As to conditions: MOI 0.1 FFU/cell, 24 hpi, in-house synthesized compound; read-out: EC50 CHIKV-nLuc, NHDF.
In series [14] the test system is U-2 OS cells. Nature of the series: Cytotoxicity assay (PrestoBlue, 24 h) in U-2 OS cells. The class given is cell-based, Human.
The subject of series [15] is NHDF cells. Nature of the series: Cytotoxicity assay (PrestoBlue, 24 h) in NHDF cells. Type of series: cell-based, Human. On the procedure:
NHDF cells were seeded at 10,000 cells per well in 24-well plates and cultured for 24 h. Cells were then treated with threefold serial dilutions of compounds starting at 500 µM and incubated for 24 h. DMSO was included as a negative control for normalization. Following treatment, cells were incubated with PrestoBlue reagent (ThermoFisher Scientific) for 1 h at 37°C, and fluorescence was measured using a PerkinElmer Victor X5 multilabel plate reader. The CC50 values were determined by normalized non-linear regression with a variable slope model in Prism (GraphPad).

Series [16] deals with CHIKV 181/25. The series can be described thus: Virus yield dose-response in U-2 OS cells, CHIKV. The class given is cell-based, Chikungunya virus.
For series [17], the system named is ONNV. The series can be described thus: organism not typed. The class given is cell-based, o'nyong-nyong virus. Particulars: read-out: EC50 virus production, ONNV.
Series [18] relates to RRV. The series can be described thus: microbe, parasite or virus in culture. Particulars: read-out: EC50 virus production, RRV. The class given is cell-based, Ross River virus.
For series [19], the system named is SINV. The series can be described thus: microbe, parasite or virus in culture. The class given is cell-based, Sindbis virus. Particulars: read-out: EC50 virus production, SINV.
The subject of series [20] is MAYV. Nature of the series: microbe, parasite or virus in culture. Type of series: cell-based, Mayaro virus. As to conditions: read-out: EC50 virus production, MAYV.
For series [21], the system named is SFV. The series can be described thus: microbe, parasite or virus in culture. The class given is cell-based, Semliki Forest virus. As to conditions: read-out: EC50 virus production, SFV.
The target in series [22] is T1, CHIKV trans-replicase (P1234) (Chikungunya virus, UniProt Q8JUX6).
T1 construct: expression of the P1234 polyprotein drives replication of a reporter RNA template; expressed in transfected cells; host or cells: U-2 OS
The series can be described thus: Trans-replicase assay, CHIKV. Type of series: cell-based. Particulars: 100 µM, U-2 OS, 20 h. Here is the method: (§1) U-2 OS cells were seeded at 75,000 cells per well in 24-well plates and cultured for 24 h. Cells were then co-transfected with 250 ng of plasmid encoding template RNA and 250 ng of plasmid encoding P1234 WT ([72], [73]), using Lipofectamine LTX with PLUS reagent (ThermoFisher Scientific) following the manufacturer’s instructions. After 4 h of post-transfection, medium containing 100 µM of compounds or DMSO was added to the cells. Cells were then incubated for 20 h, lysed, and GLuc activity was quantified using the Dual-Luciferase Reporter Assay System (Promega). Luciferase activities were normalized to those of the DMSO-treated controls.

Series [23] concerns the target T2, ONNV trans-replicase (P1234) (O'nyong-nyong virus, UniProt P13886).
T2 construct: expression of the P1234 polyprotein drives replication of a reporter RNA template; expressed in transfected cells; host or cells: U-2 OS
The series can be described thus: Trans-replicase assay, ONNV. Type of series: cell-based. As to conditions: 100 µM, U-2 OS, 20 h. Here is the method:
as §1

The target in series [24] is T3, RRV trans-replicase (P1234) (Ross river virus, UniProt P13887).
T3 construct: expression of the P1234 polyprotein drives replication of a reporter RNA template; expressed in transfected cells; host or cells: U-2 OS
T3 sequence (P13887 1-2479 limits assumed): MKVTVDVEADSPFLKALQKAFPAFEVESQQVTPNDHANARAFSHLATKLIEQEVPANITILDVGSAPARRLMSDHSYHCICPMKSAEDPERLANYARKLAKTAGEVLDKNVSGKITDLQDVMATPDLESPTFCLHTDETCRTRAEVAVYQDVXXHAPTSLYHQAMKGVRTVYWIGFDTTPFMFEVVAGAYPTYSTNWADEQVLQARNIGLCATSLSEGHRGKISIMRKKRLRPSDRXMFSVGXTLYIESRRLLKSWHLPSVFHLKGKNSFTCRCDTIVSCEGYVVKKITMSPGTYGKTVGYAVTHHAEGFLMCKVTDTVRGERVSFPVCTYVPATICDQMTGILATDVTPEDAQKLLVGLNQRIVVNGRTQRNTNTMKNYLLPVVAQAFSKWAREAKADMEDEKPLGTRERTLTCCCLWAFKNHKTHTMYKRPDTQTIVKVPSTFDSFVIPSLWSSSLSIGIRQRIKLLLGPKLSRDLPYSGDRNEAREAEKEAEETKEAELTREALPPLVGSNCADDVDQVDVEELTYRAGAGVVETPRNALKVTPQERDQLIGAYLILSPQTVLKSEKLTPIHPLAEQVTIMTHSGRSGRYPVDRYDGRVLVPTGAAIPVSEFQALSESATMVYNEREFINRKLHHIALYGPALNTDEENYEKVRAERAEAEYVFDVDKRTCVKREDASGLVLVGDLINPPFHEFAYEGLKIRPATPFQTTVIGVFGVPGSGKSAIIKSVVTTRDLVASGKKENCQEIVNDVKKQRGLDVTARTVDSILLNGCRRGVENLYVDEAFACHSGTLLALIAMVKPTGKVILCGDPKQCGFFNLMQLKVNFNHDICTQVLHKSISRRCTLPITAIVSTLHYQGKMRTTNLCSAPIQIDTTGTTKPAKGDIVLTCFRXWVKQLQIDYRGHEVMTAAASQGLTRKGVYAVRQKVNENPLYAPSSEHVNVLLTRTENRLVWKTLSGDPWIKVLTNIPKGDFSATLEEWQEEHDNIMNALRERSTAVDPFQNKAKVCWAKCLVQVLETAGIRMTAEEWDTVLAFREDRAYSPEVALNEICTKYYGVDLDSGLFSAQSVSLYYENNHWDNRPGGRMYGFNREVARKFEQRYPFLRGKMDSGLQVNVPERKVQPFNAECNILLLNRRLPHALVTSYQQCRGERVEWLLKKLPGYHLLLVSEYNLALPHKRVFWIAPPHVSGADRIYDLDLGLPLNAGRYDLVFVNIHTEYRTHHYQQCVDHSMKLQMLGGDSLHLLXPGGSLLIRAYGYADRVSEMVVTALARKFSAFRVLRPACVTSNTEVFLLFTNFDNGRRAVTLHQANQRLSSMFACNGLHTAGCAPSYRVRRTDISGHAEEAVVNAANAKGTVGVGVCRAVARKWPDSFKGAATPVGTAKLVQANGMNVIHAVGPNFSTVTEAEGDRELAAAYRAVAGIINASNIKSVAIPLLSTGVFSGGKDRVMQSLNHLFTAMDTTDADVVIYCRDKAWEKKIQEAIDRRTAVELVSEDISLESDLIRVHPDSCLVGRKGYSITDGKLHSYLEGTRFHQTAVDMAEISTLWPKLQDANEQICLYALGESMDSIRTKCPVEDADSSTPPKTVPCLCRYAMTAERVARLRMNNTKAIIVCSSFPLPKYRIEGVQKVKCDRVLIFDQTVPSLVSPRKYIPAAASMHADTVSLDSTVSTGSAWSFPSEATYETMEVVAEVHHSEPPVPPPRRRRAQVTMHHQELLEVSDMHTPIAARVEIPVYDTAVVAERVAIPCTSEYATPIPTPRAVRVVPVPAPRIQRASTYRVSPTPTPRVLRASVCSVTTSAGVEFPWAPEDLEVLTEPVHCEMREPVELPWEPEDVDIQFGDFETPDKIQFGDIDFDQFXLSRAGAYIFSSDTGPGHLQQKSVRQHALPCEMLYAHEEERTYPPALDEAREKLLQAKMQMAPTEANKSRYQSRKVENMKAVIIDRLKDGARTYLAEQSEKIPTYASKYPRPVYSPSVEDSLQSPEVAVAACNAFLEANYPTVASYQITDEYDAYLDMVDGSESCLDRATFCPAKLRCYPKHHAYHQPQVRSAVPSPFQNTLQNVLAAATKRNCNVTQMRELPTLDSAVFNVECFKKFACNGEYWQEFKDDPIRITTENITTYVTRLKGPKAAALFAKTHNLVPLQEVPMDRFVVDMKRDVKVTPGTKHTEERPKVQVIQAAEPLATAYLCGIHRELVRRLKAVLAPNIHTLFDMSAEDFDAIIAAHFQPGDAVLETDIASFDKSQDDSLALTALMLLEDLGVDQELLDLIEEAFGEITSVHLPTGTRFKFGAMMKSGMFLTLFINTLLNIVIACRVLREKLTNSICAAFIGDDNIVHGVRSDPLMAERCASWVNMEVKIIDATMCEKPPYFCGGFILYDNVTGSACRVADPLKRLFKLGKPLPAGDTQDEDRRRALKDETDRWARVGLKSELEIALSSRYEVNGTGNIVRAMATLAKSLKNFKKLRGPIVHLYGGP
T3 sequence (P13887 1-533 partner limits assumed): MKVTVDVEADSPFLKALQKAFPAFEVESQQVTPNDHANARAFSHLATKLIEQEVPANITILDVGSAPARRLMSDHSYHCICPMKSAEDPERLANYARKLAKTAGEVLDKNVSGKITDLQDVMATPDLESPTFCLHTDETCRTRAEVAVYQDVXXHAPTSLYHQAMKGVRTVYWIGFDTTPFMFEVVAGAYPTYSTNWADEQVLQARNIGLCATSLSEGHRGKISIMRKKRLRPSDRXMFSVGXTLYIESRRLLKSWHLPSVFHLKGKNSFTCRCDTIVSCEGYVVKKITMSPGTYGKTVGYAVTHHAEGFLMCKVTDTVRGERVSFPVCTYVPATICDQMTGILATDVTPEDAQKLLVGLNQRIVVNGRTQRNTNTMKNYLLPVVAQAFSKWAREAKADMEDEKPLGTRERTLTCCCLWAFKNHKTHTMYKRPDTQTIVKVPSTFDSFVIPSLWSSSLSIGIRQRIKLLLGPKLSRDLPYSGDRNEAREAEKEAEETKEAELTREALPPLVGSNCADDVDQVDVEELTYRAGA
T3 sequence (P13887 534-1331 partner limits assumed): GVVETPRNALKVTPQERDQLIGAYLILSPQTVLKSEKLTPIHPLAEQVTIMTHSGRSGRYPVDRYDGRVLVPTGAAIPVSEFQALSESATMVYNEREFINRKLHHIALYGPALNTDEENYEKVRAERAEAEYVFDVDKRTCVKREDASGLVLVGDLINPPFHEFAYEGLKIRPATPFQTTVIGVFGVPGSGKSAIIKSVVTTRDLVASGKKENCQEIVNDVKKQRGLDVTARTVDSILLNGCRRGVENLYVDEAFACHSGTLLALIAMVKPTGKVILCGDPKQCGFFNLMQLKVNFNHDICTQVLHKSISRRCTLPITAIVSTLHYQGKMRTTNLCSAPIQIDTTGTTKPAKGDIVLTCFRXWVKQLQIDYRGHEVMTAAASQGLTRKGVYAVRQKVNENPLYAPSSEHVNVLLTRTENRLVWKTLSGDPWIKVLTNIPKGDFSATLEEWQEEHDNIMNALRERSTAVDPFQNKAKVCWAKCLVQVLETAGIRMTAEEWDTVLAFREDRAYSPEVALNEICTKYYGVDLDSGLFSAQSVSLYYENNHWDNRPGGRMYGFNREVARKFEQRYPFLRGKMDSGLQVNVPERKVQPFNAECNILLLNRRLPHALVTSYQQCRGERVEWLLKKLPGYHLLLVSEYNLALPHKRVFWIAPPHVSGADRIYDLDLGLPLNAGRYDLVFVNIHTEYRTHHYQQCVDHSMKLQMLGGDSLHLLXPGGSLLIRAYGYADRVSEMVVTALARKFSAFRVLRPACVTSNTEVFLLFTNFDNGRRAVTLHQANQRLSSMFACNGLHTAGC
The series can be described thus: Trans-replicase assay, RRV. Type of series: cell-based. Particulars: 100 µM, U-2 OS, 20 h. Here is the method: as §1

For series [25], the target named is T4, SINV trans-replicase (P1234) (Sindbis virus, UniProt P03317).
T4 construct: expression of the P1234 polyprotein drives replication of a reporter RNA template; expressed in transfected cells; host or cells: U-2 OS
Nature of the series: Trans-replicase assay, SINV. As to conditions: 100 µM, U-2 OS, 20 h. Type of series: cell-based. On the procedure: as §1

Series [26] has as its target T5, SFV trans-replicase (P1234) (Semliki forest virus, UniProt P08411).
T5 construct: expression of the P1234 polyprotein drives replication of a reporter RNA template; expressed in transfected cells; host or cells: U-2 OS
Nature of the series: Trans-replicase assay, SFV. The class given is cell-based. As to conditions: 100 µM, U-2 OS, 20 h. Here is the method: as §1

Series [27] has as its target T6, BFV trans-replicase (P1234) (Barmah forest virus, UniProt P87515).
T6 construct: expression of the P1234 polyprotein drives replication of a reporter RNA template; expressed in transfected cells; host or cells: U-2 OS
The series can be described thus: Trans-replicase assay, BFV. Type of series: cell-based. As to conditions: 100 µM, U-2 OS, 20 h. On the procedure: as §1

The target in series [28] is EEEV trans-replicase (P1234) (Eastern equine encephalitis virus, UniProt Q306W6). The class given is cell-based.
Series [29] has as its target WEEV trans-replicase (P1234) (Western equine encephalitis virus, UniProt P13896). The class given is cell-based.
For series [30], the target named is VEEV trans-replicase (P1234) (Venezuelan equine encephalitis virus, UniProt P36328). The class given is cell-based.
Series [31] has as its system EILV trans-replicase (P1234). The series can be described thus: Trans-replicase assay, EILV. Type of series: cell-based, Eilat virus. Particulars: 100 µM, U-2 OS, 20 h. Here is the method: as §1
The test system of series [32] is CHIKV-nLuc. The class given is cell-based, Chikungunya virus. As to conditions: 20 µM, U-2 OS, reporter read at 24 h.
Series [33] has as its system CHIKV replicon. Particulars: read-out: Antiviral potency (EC50 [µM]) CHKV replicon; replicon cells.
The subject of series [34] is VeroE6 cells.
In series [35] the test system is U-2 OS cells.

Like-named read-outs stand apart in the source and are kept apart here. Bounds are passed on as bounds.

Regarding `Cc1ccc2sc(N(CCCN(C)C)C(=O)c3nc4ccccc4s3)nc2c1C` [GAP-1041908], the inhibition at 5 µM in series [1] (Chikungunya virus, read-out: Normalized percent inhibition in primary screen) amounted to 94.7%. Moreover, the EC50 was 18.8 µM in series [2] (Venezuelan equine encephalitis virus, Vero C1008, read-out: Antiviral potency (EC50 [µM]) VEEV); 18.9 µM in series [3] (Sindbis virus, Vero C1008); 41 µM in [4] (Human respirovirus 3, Vero C1008); 28 µM in series [5] (Severe acute respiratory syndrome coronavirus 2); 32.7 µM in series [6] (Vesicular stomatitis virus, Vero C1008, read-out: Antiviral potency (EC50 [µM]) VSV); 32.1 µM in [10]. For the same compound, the selectivity ratio in [7] is under 10. Besides, the results for the CC50 in series [8] and in series [9] were 34.9 µM and 31.4 µM, respectively.

As to “N-[2-(4-fluorophenyl)ethyl]-1,5-dimethyl-N-[(2-methylpyrazol-3-yl)methyl]pyrazole-4-sulfonamide [GAP-1146924]”, the “Normalized percent inhibition in primary screen” value in series [1] (5 µM) is recorded as 91.8%. Also, the EC50 in series [2] (read-out: Antiviral potency (EC50 [µM]) VEEV) was 35.2 µM; in series [3], over 100 µM; in series [4] it was over 100 µM; in [5] it was over 100 µM; in series [11], over 10 µM; in series [6] (read-out: Antiviral potency (EC50 [µM]) VSV) it was over 100 µM. For the same compound, the EC50 in series [12] is 23.4 ± 2.44 µM; in series [13], 9.33 µM; in series [16] (MOI 0.1, supernatant 24 hpi titered by FFA (Fig. 5), read-out: EC50 virus production, CHIKV), 16.5 ± 3.99 µM; in [16] (resistance study (Fig. 7), read-out: EC50 virus production, CHIKV WT), 19.7 ± 7.78 µM; in [17], 6.09 ± 2.2 µM; in series [18], over 100 µM. The EC50 is over 100 µM in series [19], 13 ± 5.14 µM in [20], over 100 µM in series [21] and 9.2 µM in series [33]. Also, the CC50 in series [14] is over 500 µM; in series [15] it was over 500 µM; in [34], over 100 µM; in series [35], over 100 µM. Besides, in [22], the “Effect on RNA replication (GLuc) in trans-replicase assay, CHIKV” value is recorded as “inhibited RNA replication”. In [23], the “Effect on RNA replication (GLuc) in trans-replicase assay, ONNV” value was “inhibited RNA replication”. The “Effect on RNA replication (GLuc) in trans-replicase assay, RRV” value in series [24] is on record as “some GAP-1146924 inhibition”. Further, the “Effect on RNA replication (GLuc) in trans-replicase assay, SINV” value in series [25] is “some GAP-1146924 inhibition”. The “Effect on RNA replication (GLuc) in trans-replicase assay, SFV” value in series [26] was “some GAP-1146924 inhibition”. Moreover, the “Effect on RNA replication (GLuc) in trans-replicase assay, BFV” value in series [27] is listed as “inhibited RNA replication”. For the same compound, in series [28], the “Effect on RNA replication (GLuc) in trans-replicase assay, EEEV” value is “some inhibition”. Moreover, the “Effect on RNA replication (GLuc) in trans-replicase assay, WEEV” value in series [29] is reported as “some inhibition”. Besides, the “Effect on RNA replication (GLuc) in trans-replicase assay, VEEV” value in series [30] is listed as “some inhibition”. For the same compound, in series [31], the “Effect on RNA replication (GLuc) in trans-replicase assay, EILV” value is “some inhibition”. In addition, the “Time-of-addition profile (stage of replication targeted)” value in [32] is “act on a stage after viral entry”.
